# Results taken from patent US7390806B2, “Antibiotics containing borinic acid complexes and methods of use” (Anacor Pharmaceuticals, Inc., priority 2002, dated 2008).
# Columns and labels:
# [1] = test system: Aspergillus fumigatus ATCC 204305; experiment: Antifungal in vitro MIC, Aspergillus fumigatus; type: cell-based; details: for MIC Aspergillus fumigatus ATCC 204305: percent inhibition >= 80%
# S. aureus ATCC 29213 = experiment: MIC determination, S. aureus ATCC 29213; type: cell-based, Staphylococcus aureus; details: Table 1
# [2] = test system: M. catarrhalis ATCC 25238; experiment: MIC determination, M. catarrhalis ATCC 25238; type: cell-based; details: Table 1
# [3] = test system: Candida glabrata ATCC 15126; experiment: Antifungal in vitro MIC, Candida glabrata; type: cell-based; details: for MIC Candida glabrata ATCC 15126: percent inhibition >= 80%
# [4] = test system: Candida parapsilosis ATCC 22019; experiment: Antifungal in vitro MIC, Candida parapsilosis; type: cell-based; details: for MIC Candida parapsilosis ATCC 22019: percent inhibition >= 80%
# E. faecalis ATCC 29212 = experiment: MIC determination, E. faecalis ATCC 29212; type: cell-based, Enterococcus faecalis; details: Table 1
# [5] = test system: Trichophyton mentagrophytes ATCC 10270; experiment: Antifungal in vitro MIC, Trichophyton mentagrophytes; type: cell-based; details: for MIC Trichophyton mentagrophytes ATCC 10270: percent inhibition >= 80%
# M. tuberculosis H37Rv = experiment: Anti-mycobacterium in vitro activity, H37Rv; type: cell-based, Mycobacterium tuberculosis; details: Sensitive strain
# [6] = test system: Candida albicans ATCC 90028; experiment: Antifungal in vitro MIC, Candida albicans; type: cell-based; details: for MIC Candida albicans ATCC 90028: percent inhibition >= 80%
# [7] = test system: S. epidermidis ATCC 12228; experiment: MIC determination, S. epidermidis ATCC 12228; type: cell-based, Staphylococcus epidermidis; details: Table 1
# [8] = test system: Microsporum canis ATCC 10214; experiment: Antifungal in vitro MIC, Microsporum canis; type: cell-based; details: for MIC Microsporum canis ATCC 10214: percent inhibition >= 80%
# E. faecium CT-26 = experiment: MIC determination, E. faecium CT-26; type: cell-based, Enterococcus faecium; details: Table 1
SMILES,"MIC ([1]; Aspergillus fumigatus, ATCC204305, read-out: MIC Aspergillus fumigatus ATCC 204305)",MIC S. aureus ATCC 29213 (S. aureus ATCC 29213),MIC M. catarrhalis ATCC 25238 [2],"MIC ([3]; Nakaseomyces glabratus, ATCC15126, read-out: MIC Candida glabrata ATCC 15126)","MIC ([4]; Lodderomyces parapsilosis, ATCC22019, read-out: MIC Candida parapsilosis ATCC 22019)",MIC E. faecalis ATCC 29212 (E. faecalis ATCC 29212),"MIC ([5]; Trichophyton mentagrophytes, ATCC10270, read-out: MIC Trichophyton mentagrophytes ATCC 10270)",M. tuberculosis MIC H37Rv (M. tuberculosis H37Rv),"MIC ([6]; Candida albicans, ATCC90028, read-out: MIC Candida albicans ATCC 90028)",MIC S. epidermidis ATCC 12228 [7],"MIC ([8]; Microsporum canis, ATCC10214, read-out: MIC Microsporum canis ATCC 10214)",MIC E. faecium CT-26 (E. faecium CT-26),MIC Aspergillus fumigatus ATCC 204305 [1],MIC Candida glabrata ATCC 15126 [3],MIC Candida parapsilosis ATCC 22019 [4],MIC Trichophyton mentagrophytes ATCC 10270 [5],MIC Candida albicans ATCC 90028 [6],MIC Microsporum canis ATCC 10214 [8]
"Oc1cccc2cccnc12 [Compound 53, 8-hydroxyquinoline]",> 32 µg/mL,2 micrograms per ml,2 micrograms per ml,> 32 µg/mL,32 µg/mL,64 micrograms per ml,> 32 µg/mL,0.775 µg/mL,1 µg/mL,2 micrograms per ml,16 µg/mL,4 micrograms per ml,,,,,,
"Cc1ccc(B(OCc2cn(C)cn2)c2ccc(C)c(Cl)c2)cc1Cl [Compound 130, Bis(3-Chloro-4-methylphenyl)borinic acid 1-methyl-4-(hydroxymethyl)-imidazole ester]",,,,,,,,,,,,,0.5 µg/mL,0.5 µg/mL,0.5 µg/mL,0.5 µg/mL,1 µg/mL,0.5 µg/mL
"Cc1ccc(B(OCCc2ccccn2)c2ccc(C)c(Cl)c2)cc1Cl [Compound 131, Bis(3-Chloro-4-methylphenyl)borinic acid 2-pyridylethanol]",,,,,,,,,,,,,>32 µg/mL,>32 µg/mL,>32 µg/mL,32 µg/mL,2 µg/mL,32 µg/mL
